According to BindingDB's records for doi:10.1021/acsmedchemlett.7b00315 (Astrazeneca, 2017):

What was measured:
[1] = Antagonist activity at human CCR4 expressed in Th2 cells coexpressing CD45RA+ assessed as inhibition of CCL17 induced chemotaxis
[2] = Antagonist activity at human CCR4 expressed in Th2 cells coexpressing CD45RA+ assessed as inhibition of CCL22 induced chemotaxis
[3] = Antagonist activity at CCR4 in human primary Th2 cells by chemotaxis assay

| IC50 [1] | IC50 [2] | IC50 [3] | Structure (SMILES) |
| --- | --- | --- | --- |
| 0.501 µM | 0.501 µM | – | COc1nccnc1NS(=O)(=O)c1cccc(Cl)c1Cl |
| 0.316 µM | 0.158 µM | – | COc1nc(F)cnc1NS(=O)(=O)c1cccc(Cl)c1Cl |
| – | – | 0.2 µM | COc1nc(Br)cnc1NS(=O)(=O)c1ccc(Cl)s1 |
